Measured values taken from article PMC9186362, “Design and biological evaluation of substituted 5,7-dihydro-6H-indolo[2,3-c]quinolin-6-one as novel selective Haspin inhibitors” (Journal of Enzyme Inhibition and Medicinal Chemistry, 2022).

Key:
[1] = target: T1, CLK4 (Homo sapiens, UniProt Q9HAZ1); experiment: LanthaScreen Binding - Eu-anti-His; details: read-out: Percentage of inhibition
T1 construct: purchased Life Technologies (SelectScreen Whole Panel)
Protocol: (§1) We further evaluated the selectivity profile of compound 55 on a larger panel of kinases (SelectScreen Whole Panel, Life Technologies). The inhibition profile of 55, evaluated at 1 μM, is depicted on a dendrogram on Figure 3 where kinases inhibited by a minimum of 80% are shown. A full list of the kinases tested is shown on Table S1 in supplementary information.

[2] = target: T2, TEC (Homo sapiens, UniProt P42680); experiment: LanthaScreen Binding - Eu-anti-His; details: read-out: Percentage of inhibition
T2 construct: purchased Life Technologies
T2 sequence (P42680 whole entry): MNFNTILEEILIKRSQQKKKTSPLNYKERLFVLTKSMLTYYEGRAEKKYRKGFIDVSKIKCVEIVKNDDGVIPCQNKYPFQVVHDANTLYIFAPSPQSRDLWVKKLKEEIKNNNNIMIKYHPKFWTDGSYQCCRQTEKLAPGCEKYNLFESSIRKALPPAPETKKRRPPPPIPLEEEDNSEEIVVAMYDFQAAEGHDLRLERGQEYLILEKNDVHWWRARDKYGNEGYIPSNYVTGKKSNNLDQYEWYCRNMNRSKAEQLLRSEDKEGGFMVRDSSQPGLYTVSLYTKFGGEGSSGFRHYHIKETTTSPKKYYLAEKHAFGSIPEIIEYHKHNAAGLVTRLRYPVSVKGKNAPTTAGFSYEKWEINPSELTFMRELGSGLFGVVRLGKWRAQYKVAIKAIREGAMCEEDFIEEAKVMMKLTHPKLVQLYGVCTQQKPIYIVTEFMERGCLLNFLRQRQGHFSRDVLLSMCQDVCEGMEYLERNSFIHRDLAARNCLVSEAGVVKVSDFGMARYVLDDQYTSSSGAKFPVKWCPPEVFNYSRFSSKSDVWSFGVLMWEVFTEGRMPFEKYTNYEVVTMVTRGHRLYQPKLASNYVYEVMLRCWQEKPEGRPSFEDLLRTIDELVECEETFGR
Protocol: as §1

[3] = target: T3, ULK3 (Homo sapiens, UniProt Q6PHR2); experiment: LanthaScreen Binding - Eu-anti-His; details: read-out: Percentage of inhibition
T3 construct: purchased Life Technologies (SelectScreen Whole Panel service)
T3 sequence (Q6PHR2 whole entry): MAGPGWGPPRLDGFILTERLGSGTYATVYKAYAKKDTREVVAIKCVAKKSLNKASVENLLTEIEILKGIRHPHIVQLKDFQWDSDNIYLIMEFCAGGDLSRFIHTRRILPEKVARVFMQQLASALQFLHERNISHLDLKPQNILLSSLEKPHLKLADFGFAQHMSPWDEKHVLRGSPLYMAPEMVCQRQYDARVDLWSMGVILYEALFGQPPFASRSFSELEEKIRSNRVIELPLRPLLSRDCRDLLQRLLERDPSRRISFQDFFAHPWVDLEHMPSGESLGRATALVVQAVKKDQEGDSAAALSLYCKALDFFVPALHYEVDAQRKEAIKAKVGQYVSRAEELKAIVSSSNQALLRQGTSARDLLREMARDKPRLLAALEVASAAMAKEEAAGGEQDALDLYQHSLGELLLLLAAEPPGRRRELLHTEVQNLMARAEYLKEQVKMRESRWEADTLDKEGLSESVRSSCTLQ
Protocol: as §1

[4] = target: T4, MAP2K2 (MEK2) (Homo sapiens, UniProt P36507); experiment: LanthaScreen Binding - Eu-anti-His; details: read-out: Percentage of inhibition
T4 construct: purchased Life Technologies
Protocol: as §1

[5] = target: T5, MAPK9 (JNK2) (Homo sapiens, UniProt P45984); experiment: LanthaScreen Binding - Eu-anti-His; details: read-out: Percentage of inhibition
T5 construct: purchased Life Technologies (SelectScreen service)
Protocol: as §1

[6] = target: T6, MAPK8 (JNK1) (Homo sapiens, UniProt P45983); experiment: LanthaScreen Binding - Eu-anti-His; details: read-out: Percentage of inhibition
T6 construct: purchased Life Technologies (SelectScreen Whole Panel service)
T6 sequence (P45983 whole entry): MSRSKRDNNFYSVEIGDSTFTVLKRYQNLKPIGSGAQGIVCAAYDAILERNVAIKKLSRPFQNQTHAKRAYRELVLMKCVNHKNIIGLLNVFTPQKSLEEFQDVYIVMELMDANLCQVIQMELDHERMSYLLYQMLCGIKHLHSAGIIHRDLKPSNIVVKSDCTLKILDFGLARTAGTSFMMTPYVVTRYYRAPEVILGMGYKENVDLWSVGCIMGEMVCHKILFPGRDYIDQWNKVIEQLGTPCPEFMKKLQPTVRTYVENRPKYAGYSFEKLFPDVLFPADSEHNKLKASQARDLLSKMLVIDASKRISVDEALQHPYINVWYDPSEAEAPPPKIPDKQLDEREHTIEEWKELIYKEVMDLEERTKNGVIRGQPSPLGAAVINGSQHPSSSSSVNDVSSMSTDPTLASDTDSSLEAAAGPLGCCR
Protocol: as §1

[7] = target: T7, STK33 (Homo sapiens, UniProt Q9BYT3); experiment: LanthaScreen Binding - Eu-anti-His; details: read-out: Percentage of inhibition
T7 construct: purchased Life Technologies (SelectScreen Whole Panel service)
Protocol: as §1

[8] = target: T8, AMPK (A2/B2/G1) (Homo sapiens, UniProt P54646); experiment: LanthaScreen Binding - Eu-anti-His; details: read-out: Percentage of inhibition
T8 construct: purchased Life Technologies (SelectScreen service)
Protocol: as §1

[9] = target: T9, STK39 (STLK3) (Homo sapiens, UniProt Q9UEW8); experiment: LanthaScreen Binding - Eu-anti-His; details: read-out: Percentage of inhibition
T9 construct: purchased Life Technologies (SelectScreen service)
Protocol: as §1

[10] = target: T10, MAP2K6 (MKK6) S207E T211E (Homo sapiens, UniProt P52564, S207E/T211E); experiment: LanthaScreen Binding - Eu-anti-His; details: read-out: Percentage of inhibition
T10 construct: purchased Life Technologies (SelectScreen Whole Panel service)
T10 sequence (P52564 whole entry S207E/T211E): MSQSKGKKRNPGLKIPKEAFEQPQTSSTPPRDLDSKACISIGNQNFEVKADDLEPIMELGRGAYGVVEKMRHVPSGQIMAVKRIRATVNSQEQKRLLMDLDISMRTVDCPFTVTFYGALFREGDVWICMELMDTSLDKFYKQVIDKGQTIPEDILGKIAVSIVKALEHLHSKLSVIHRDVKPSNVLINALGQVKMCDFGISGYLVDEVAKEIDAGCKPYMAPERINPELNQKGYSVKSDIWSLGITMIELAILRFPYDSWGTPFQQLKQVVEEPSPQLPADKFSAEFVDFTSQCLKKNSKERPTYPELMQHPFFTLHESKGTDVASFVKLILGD
Protocol: as §1

[11] = target: T11, STK16 (PKL12) (Homo sapiens, UniProt O75716); experiment: LanthaScreen Binding - Eu-anti-His; details: read-out: Percentage of inhibition
T11 construct: purchased Life Technologies (SelectScreen Whole Panel)
Protocol: as §1

[12] = target: T12, AMPK (A2/B2/G2) (Homo sapiens, UniProt P54646); experiment: LanthaScreen Binding - Eu-anti-His; details: read-out: Percentage of inhibition
T12 construct: purchased Life Technologies (SelectScreen service)
Protocol: as §1

[13] = target: T13, MAP2K1 (MEK1) (Homo sapiens, UniProt Q02750); experiment: LanthaScreen Binding - Eu-anti-His; details: read-out: Percentage of inhibition
T13 construct: purchased Life Technologies (SelectScreen Whole Panel)
T13 sequence (Q02750 whole entry): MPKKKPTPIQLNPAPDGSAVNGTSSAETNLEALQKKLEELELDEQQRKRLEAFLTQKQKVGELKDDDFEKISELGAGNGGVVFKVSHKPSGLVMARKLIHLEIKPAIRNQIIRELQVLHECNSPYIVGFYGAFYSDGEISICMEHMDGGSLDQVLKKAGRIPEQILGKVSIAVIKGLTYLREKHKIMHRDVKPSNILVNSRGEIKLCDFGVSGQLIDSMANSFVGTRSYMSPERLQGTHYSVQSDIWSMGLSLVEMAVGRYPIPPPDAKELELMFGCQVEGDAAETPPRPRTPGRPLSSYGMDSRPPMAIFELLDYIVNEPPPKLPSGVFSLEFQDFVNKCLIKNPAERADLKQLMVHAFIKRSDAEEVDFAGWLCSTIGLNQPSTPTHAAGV
Protocol: as §1

[14] = target: WNK1 (Homo sapiens, UniProt Q9H4A3); experiment: LanthaScreen Binding - Eu-anti-His; details: read-out: Percentage of inhibition
Chain of WNK1 (Q9H4A3 whole entry): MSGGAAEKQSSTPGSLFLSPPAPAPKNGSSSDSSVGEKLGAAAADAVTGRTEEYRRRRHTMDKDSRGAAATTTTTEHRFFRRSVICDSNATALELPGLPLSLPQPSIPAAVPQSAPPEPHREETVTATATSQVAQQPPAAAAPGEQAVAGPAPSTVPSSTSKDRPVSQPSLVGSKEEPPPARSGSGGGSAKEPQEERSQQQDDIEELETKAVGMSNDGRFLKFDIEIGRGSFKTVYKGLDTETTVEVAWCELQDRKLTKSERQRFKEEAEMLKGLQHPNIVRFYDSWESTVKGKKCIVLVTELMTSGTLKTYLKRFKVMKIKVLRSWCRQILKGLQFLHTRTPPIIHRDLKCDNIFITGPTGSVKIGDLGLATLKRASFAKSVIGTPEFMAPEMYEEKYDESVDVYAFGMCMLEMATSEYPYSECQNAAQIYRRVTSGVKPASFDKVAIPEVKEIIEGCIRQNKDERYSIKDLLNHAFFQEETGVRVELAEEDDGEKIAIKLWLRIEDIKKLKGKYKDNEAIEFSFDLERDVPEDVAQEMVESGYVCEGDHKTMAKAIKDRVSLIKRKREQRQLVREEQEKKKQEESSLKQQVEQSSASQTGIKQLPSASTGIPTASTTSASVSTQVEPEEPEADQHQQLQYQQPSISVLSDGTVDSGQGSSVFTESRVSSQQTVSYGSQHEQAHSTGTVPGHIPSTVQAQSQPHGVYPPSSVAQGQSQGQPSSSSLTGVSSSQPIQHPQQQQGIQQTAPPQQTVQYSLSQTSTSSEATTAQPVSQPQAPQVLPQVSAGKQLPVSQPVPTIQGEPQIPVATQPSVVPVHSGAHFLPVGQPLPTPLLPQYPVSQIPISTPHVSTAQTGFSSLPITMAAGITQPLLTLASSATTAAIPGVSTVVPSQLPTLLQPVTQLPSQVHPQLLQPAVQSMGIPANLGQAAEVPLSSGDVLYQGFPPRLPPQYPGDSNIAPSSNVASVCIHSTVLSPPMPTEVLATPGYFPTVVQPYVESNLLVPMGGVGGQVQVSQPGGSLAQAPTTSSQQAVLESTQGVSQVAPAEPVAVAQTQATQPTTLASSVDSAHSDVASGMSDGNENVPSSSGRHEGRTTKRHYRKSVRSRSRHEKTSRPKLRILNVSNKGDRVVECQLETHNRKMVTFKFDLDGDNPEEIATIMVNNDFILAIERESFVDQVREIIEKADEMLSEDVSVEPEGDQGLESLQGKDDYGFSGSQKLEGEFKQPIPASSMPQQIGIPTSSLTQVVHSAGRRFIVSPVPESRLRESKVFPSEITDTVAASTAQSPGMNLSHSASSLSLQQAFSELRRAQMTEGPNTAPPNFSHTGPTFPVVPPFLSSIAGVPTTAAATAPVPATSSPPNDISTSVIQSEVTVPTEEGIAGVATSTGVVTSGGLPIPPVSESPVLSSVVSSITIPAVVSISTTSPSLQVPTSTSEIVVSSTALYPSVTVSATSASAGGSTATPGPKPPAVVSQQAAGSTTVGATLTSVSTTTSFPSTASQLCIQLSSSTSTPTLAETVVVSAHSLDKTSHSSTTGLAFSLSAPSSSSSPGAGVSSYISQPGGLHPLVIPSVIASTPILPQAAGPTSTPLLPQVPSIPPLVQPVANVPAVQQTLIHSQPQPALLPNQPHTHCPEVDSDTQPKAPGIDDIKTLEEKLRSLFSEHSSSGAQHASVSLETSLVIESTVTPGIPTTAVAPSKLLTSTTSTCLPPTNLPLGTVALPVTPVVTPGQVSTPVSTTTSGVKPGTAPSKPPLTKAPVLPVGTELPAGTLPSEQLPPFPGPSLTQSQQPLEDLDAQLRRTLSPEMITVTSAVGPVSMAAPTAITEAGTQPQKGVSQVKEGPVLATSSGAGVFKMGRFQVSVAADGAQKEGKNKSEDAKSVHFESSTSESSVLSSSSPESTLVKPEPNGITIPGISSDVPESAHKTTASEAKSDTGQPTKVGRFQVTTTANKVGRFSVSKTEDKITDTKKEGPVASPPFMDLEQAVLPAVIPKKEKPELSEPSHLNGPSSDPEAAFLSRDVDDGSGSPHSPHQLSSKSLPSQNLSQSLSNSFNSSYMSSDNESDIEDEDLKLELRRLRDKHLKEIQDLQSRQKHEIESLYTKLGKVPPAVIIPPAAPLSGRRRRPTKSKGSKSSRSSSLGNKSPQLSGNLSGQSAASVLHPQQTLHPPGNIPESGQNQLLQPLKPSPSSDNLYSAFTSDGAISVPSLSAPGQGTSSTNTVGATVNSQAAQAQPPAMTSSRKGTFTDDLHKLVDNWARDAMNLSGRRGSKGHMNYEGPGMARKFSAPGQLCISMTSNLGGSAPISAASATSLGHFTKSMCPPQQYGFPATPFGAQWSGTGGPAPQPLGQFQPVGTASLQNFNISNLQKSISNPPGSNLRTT
Protocol: as §1

[15] = target: T14, AMPK (A1/B2/G1) (Homo sapiens, UniProt Q13131); experiment: LanthaScreen Binding - Eu-anti-His; details: read-out: Percentage of inhibition
T14 construct: purchased Life Technologies (SelectScreen service)
Protocol: as §1

[16] = target: T15, LIMK1 (Homo sapiens, UniProt P53667); experiment: LanthaScreen Binding - Eu-anti-His; details: read-out: Percentage of inhibition
T15 construct: purchased Life Technologies (SelectScreen service)
Protocol: as §1

[17] = target: CDK9/cyclin K (Homo sapiens, UniProt P50750); experiment: LanthaScreen Binding - Eu-anti-His; details: read-out: Percentage of inhibition
Protocol: as §1

[18] = target: T16, AMPK (A1/B1/G3) (Homo sapiens, UniProt Q13131); experiment: LanthaScreen Binding - Eu-anti-His; details: read-out: Percentage of inhibition
T16 construct: purchased Life Technologies (SelectScreen service)
Protocol: as §1

[19] = target: RIPK2 (Homo sapiens, UniProt O43353); experiment: LanthaScreen Binding - Eu-anti-His; details: read-out: Percentage of inhibition
Protocol: as §1

[20] = target: T17, MAP3K7/MAP3K7IP1 (TAK1-TAB1) (Homo sapiens, UniProt O43318); experiment: LanthaScreen Binding - Eu-anti-His; details: read-out: Percentage of inhibition
T17 construct: purchased Life Technologies (SelectScreen Whole Panel)
T17 sequence (O43318 with tags, fused parts or gaps limits assumed): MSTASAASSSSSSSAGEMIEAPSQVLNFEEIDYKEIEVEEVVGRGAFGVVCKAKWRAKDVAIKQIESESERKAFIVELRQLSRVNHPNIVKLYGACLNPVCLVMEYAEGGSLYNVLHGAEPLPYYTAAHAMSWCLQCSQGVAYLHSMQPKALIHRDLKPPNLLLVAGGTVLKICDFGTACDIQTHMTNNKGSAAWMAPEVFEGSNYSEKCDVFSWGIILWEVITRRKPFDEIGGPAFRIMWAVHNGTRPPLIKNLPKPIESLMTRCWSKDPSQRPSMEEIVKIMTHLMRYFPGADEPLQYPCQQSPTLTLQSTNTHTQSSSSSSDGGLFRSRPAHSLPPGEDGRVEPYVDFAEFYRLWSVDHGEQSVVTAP
Protocol: as §1

[21] = target: T18, DAPK2 (Homo sapiens, UniProt Q9UIK4); experiment: LanthaScreen Binding - Eu-anti-His; details: read-out: Percentage of inhibition
T18 construct: purchased Life Technologies (SelectScreen service)
Protocol: as §1

[22] = target: T19, AMPK (A1/B1/G2) (Homo sapiens, UniProt Q13131); experiment: LanthaScreen Binding - Eu-anti-His; details: read-out: Percentage of inhibition
T19 construct: purchased Life Technologies (SelectScreen service)
Protocol: as §1

[23] = target: T20, KIT V654A (Homo sapiens, UniProt P10721, V654A); experiment: LanthaScreen Binding - Eu-anti-His; details: read-out: Percentage of inhibition
T20 construct: purchased Life Technologies (SelectScreen service)
Protocol: as §1

[24] = target: EPHA3 (Homo sapiens, UniProt P29320); experiment: LanthaScreen Binding - Eu-anti-His; details: read-out: Percentage of inhibition
Protocol: as §1

[25] = target: T21, WNK3 (Homo sapiens, UniProt Q9BYP7); experiment: LanthaScreen Binding - Eu-anti-His; details: read-out: Percentage of inhibition
T21 construct: purchased Life Technologies (SelectScreen Whole Panel)
Protocol: as §1

[26] = target: T22, MAP2K6 (MKK6) (Homo sapiens, UniProt P52564); experiment: LanthaScreen Binding - Eu-anti-His; details: read-out: Percentage of inhibition
T22 construct: purchased Life Technologies (SelectScreen Whole Panel service)
T22 sequence (P52564 whole entry): as the sequence (P52564 whole entry S207E/T211E) above, with E207S, E211T counted along it
Protocol: as §1

[27] = target: T23, MAP2K1 (MEK1) S218D S222D (Homo sapiens, UniProt Q02750, S218D/S222D); experiment: LanthaScreen Binding - Eu-anti-His; details: read-out: Percentage of inhibition
T23 construct: purchased Life Technologies (SelectScreen Whole Panel)
Protocol: as §1

[28] = target: T24, CDK8/cyclin C (Homo sapiens, UniProt P49336); experiment: LanthaScreen Binding - Eu-anti-His; details: read-out: Percentage of inhibition
T24 construct: purchased Life Technologies
Protocol: as §1

[29] = system: endogenous Haspin (H3T3ph) in U-2 OS cells; experiment: Endogenous Haspin activity, H3T3ph immunofluorescence; format: cell-based, human; details: 0.5 µM, 16 h, early mitotic U-2 OS cells
Protocol: U-2 OS cells were grown on glass coverslips, treated for 16 h than fixed with 4% paraformaldehyde in PBS, permeabilized by 0.15% Triton-X100 for 2 min, blocked for 15 min in 4% BSA in PBS and processed using standard immunofluorescence protocols. Primary antibodies included anti-phospho-Thr3 Histone H3 (1/1000 dilution, Millipore) and anti-α-tubulin (1/5000 dilution, clone B512, Sigma). Images were acquired with a Coolsnap HQ2 CCD camera (Photometrics) on a Zeiss Axio microscope (Carl Zeiss) using a 63x NA 1.40 objective. Image acquisition and processing were performed using Metamorph (Molecular Device). Quantification of signal intensity was performed using ImageJ software (NIH).

[30] = system: panel of 486 kinases; experiment: SelectScreen Whole Panel selectivity profile; format: biochemical; details: 1 µM
Protocol: as §1

[31] = system: U-2 OS cells; experiment: Cell cycle analysis by flow cytometry; format: cell-based, human; details: 1 µM, 24 h
Protocol: After treatment with the compounds, cells were trypsinized and washed once in PBS. Cells were fixed for 1 h in ice-cold 70% ethanol, then washed once in PBS, centrifuged at 200 g and resuspended in a PBS buffer containing 100 µg/ml RNase A (Thermo Scientific) and 40 µg/ml propidium iodide (Life Technologies). DNA content was determined using a flow cytometer Attune^TM NxT (Thermofisher) and ten thousand events were collected in each run. The data were analysed using FCS Express 7 Pro software (De Novo).

## COc1ccc2[nH]c3c(=O)[nH]c4ccc(O)cc4c3c2c1 [Compound 55, 2-Hydroxy-10-methoxy-5,7-dihydro-6H-indolo[2,3-c]quinolin-6-one]
[1]
  inhibition at 1 µM: 100%
[2]
  inhibition at 1 µM: 4%
[3]
  inhibition at 1 µM: 45%
[4]
  inhibition at 1 µM: 94%
[5]
  inhibition at 1 µM: 25%
[6]
  inhibition at 1 µM: 43%
[7]
  inhibition at 1 µM: 46%
[8]
  inhibition at 1 µM: 70%
[9]
  inhibition at 1 µM: 24%
[10]
  inhibition at 1 µM: 18%
[11]
  inhibition at 1 µM: 51%
[12]
  inhibition at 1 µM: 80%
[13]
  inhibition at 1 µM: 98%
[14]
  inhibition at 1 µM: 7%
[15]
  inhibition at 1 µM: 86%
[16]
  inhibition at 1 µM: 23%
[17]
  inhibition at 1 µM: 59%
[18]
  inhibition at 1 µM: 82%
[19]
  inhibition at 1 µM: 13%
[20]
  inhibition at 1 µM: 98%
[21]
  inhibition at 1 µM: 90%
[22]
  inhibition at 1 µM: 81%
[23]
  inhibition at 1 µM: 25%
[24]
  inhibition at 1 µM: 13%
[25]
  inhibition at 1 µM: 2%
[26]
  inhibition at 1 µM: 2%
[27]
  inhibition at 1 µM: 98%
[28]
  inhibition at 1 µM: 40%
[29]
  Inhibition of intracellular Haspin (H3T3ph signal): could inhibit intracellular Haspin
[30]
  Number of the 486 kinases inhibited by >50%: 159
other
  melting point: 202 to 205 °C
[31]; DMSO control 6%
  % of cycling cells G2/M: 20%
[31]; DMSO control 44%
  % of cycling cells S: 44%
[31]; DMSO control 50%
  % of cycling cells G1: 36%
